Assay: Excipient compatibility screening with sodium thiosulfate (appearance)
Assay type: physicochemical
Settings: added to the gel formulation
Procedure: During preformulation studies, sodium thiosulfate and methionine were identified as effective antioxidants for PTH(1-34). […] Sodium thiosulfate was assayed in the gel formulations listed in Table 21 in the absence of PTH(1-34) in order to identify which excipients were incompatible with sodium thiosulfate. Gel formulations were prepared according to the method described in Example 8. LDPE dropper bottles (5 mL) were purchased from IntraPac Group and over wrap foil (FR-2175) was obtained from Covalence Coated Products. The appearance of all samples was noted initially and after one week of storage at 20° C. protected from light.

In the case of `O=S([O-])([O-])=S.[Na+].[Na+]` [sodium thiosulfate], the “compatibility with the gel formulation” value is reported as “a yellowish precipitate formed”.

From patent US20080299228A1, “TOPICAL COMPOSITIONS COMPRISING A MACROMOLECULE AND METHODS OF USING SAME” (priority 2007, published 2008)
